This assay deals with T1, NLRP3 (Mus musculus, UniProt Q8R4B8).
T1 construct: endogenous NLRP3 in lysates of LPS-primed BMDMs
As to the kind of experiment: DARTS (pronase protection) in BMDM lysates at […]. The format is cell-based.

The structures appear in SMILES notation.

T1 sequence (Q8R4B8 whole entry): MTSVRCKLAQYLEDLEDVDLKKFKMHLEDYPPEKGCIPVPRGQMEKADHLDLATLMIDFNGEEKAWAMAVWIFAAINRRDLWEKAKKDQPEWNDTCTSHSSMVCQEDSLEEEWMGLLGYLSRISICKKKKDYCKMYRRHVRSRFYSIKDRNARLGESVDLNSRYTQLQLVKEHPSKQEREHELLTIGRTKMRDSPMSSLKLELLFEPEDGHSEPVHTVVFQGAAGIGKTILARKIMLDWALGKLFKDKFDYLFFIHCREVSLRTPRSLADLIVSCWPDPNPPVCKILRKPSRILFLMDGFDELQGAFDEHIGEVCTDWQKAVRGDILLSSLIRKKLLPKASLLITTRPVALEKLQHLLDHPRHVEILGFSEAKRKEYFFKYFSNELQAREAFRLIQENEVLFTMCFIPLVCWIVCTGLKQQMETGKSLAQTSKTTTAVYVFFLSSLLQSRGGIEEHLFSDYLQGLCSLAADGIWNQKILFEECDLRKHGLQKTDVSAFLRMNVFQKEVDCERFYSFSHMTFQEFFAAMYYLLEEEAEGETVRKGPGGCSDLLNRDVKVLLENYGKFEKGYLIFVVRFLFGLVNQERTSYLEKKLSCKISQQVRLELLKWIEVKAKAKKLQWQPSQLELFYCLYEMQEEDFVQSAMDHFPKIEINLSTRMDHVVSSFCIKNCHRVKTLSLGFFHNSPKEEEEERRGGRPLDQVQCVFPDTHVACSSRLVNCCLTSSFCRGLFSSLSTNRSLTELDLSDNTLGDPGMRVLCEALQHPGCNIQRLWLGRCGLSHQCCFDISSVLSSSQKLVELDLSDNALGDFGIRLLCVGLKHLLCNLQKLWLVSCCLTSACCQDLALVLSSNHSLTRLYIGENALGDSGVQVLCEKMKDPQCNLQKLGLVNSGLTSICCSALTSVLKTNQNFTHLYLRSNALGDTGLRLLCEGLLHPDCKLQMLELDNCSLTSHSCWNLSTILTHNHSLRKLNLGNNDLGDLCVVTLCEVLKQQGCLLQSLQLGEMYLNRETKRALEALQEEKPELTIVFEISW

For `CC1=C(CC/C(C)=C/CCC2=CC[C@H](C3=CC(=O)O[C@H]3O)O[C@H]2O)C(C)(C)CCC1` [manoalide], the “DARTS (pronase protection) in BMDM lysates at 10 and 50 μM” value was “Pronase-mediated degradation of NLRP3 is reversed in dose-dependent manner by manoalide”.

Values taken from article PMC8888861, “Inhibition of the NLRP3 Inflammasome Activation by Manoalide Ameliorates Experimental Autoimmune Encephalomyelitis Pathogenesis” (Frontiers in Cell and Developmental Biology, 2022).
